Data taken from the supplement of paper PMC10307832.

How the values were obtained:
Assay in all cases: relative viability (nuclei count vs DMSO), 5 days (fraction); higher = more cells survive
[1] = compound: CNC(=O)c1cc(Oc2ccc(NC(=O)Nc3ccc(Cl)c(C(F)(F)F)c3)cc2)ccn1 [Sorafenib] + C[C@]1(O)C[C@@H](c2nc(-c3ccc4ccc(-c5ccccc5)nc4c3)c3c(N)nccn32)C1 [Linsitinib] (partner 1 µM)
Summary of the method: (§1)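 Relative viability is defined as nuclei in treated wells over nuclei in vehicle wells. Duplicate plates were run and medians reported. Lung cancer cell lines in 1536-well plates were dosed by pin tool one day after seeding, with one drug or with a fixed anchor-drug dose plus five library-drug doses (not always all listed) in √10 steps, and nuclei were counted after 5 days.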

[2] = compound: CNC(=O)c1cc(Oc2ccc(NC(=O)Nc3ccc(Cl)c(C(F)(F)F)c3)cc2)ccn1 [Sorafenib] + N=C(N)NC(=N)NCCc1ccccc1 [Phenformin] (partner 250 µM)
Summary of the method: as §1

[3] = compound: CNC(=O)c1cc(Oc2ccc(NC(=O)Nc3ccc(Cl)c(C(F)(F)F)c3)cc2)ccn1 [Sorafenib] + Cc1nc(Nc2ncc(C(=O)Nc3c(C)cccc3Cl)s2)cc(N2CCN(CCO)CC2)n1 [Dasatinib] (partner 0.075 µM)
Summary of the method: as §1

[4] = compound: CNC(=O)c1cc(Oc2ccc(NC(=O)Nc3ccc(Cl)c(C(F)(F)F)c3)cc2)ccn1 [Sorafenib] + NC(=O)Nc1cc(-c2cccc(F)c2)sc1C(=O)N[C@H]1CCCNC1 [AZD7762] (partner 0.2 µM)
Summary of the method: as §1

[5] = compound: CNC(=O)c1cc(Oc2ccc(NC(=O)Nc3ccc(Cl)c(C(F)(F)F)c3)cc2)ccn1 [Sorafenib]
Summary of the method: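 After an overnight hold at 37 °C, lung cancer cell lines in 1536-well plates were pinned with five library-drug doses (not always all listed), each √10 from the next, on vehicle-anchored plates. The cells stayed 5 days without fresh medium, then a one-step fix, permeabilisation and Hoechst stain preceded 4× imaging and MetaXpress nuclear counts. A plate passed only with control CV under 25% and at least one doubling. Viability is the median, over plates, of treated-well nuclei relative to vehicle-well nuclei.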

Cell Line	relative viability ([1]; first compound 0.08 µM)	relative viability ([1]; first compound 2.53 µM)	relative viability ([1]; first compound 8 µM)	relative viability ([2]; first compound 0.08 µM)	relative viability ([2]; first compound 2.53 µM)	relative viability ([2]; first compound 8 µM)	relative viability ([3]; first compound 0.08 µM)	relative viability ([3]; first compound 0.253 µM)	relative viability ([3]; first compound 2.53 µM)	relative viability ([3]; first compound 8 µM)	relative viability ([4]; first compound 0.08 µM)	relative viability ([4]; first compound 0.253 µM)	relative viability ([4]; first compound 8 µM)	relative viability ([5]; 0.08 µM)	relative viability ([5]; 0.253 µM)	relative viability ([5]; 2.53 µM)	relative viability ([5]; 8 µM)	relative viability ([1]; first compound 0.253 µM)	relative viability ([2]; first compound 0.253 µM)	relative viability ([4]; first compound 2.53 µM)
NCI-H838	1.1	1.24	0.485	0.749	0.948	0.388	0.285	0.277	0.318	0.293	0.971	0.93	0.923	1.04	0.996	1.17	0.994			
NCI-H596	1.06	1.07	1.26	0.787	0.665	0.86	0.68	0.53	0.55	0.461	1.21	1	0.819	0.993	1.03	1.18	0.969	0.982	0.587	0.94
HOP-62	1.14	0.781	0.49	0.682	0.54	0.369	0.796	0.527	0.584	0.59		0.567	0.207	0.986	0.858	0.764	0.589	0.839	0.558	0.405
NCI-H2126	0.754	0.745		0.539	0.603	0.501	0.735	0.533	0.652	0.501	1.01	1.01	0.982	1.02	0.997	1.07	1	0.706	0.529	1.07
NCI-H2023	0.733	0.669	0.497	0.51	0.374	0.174	0.681	0.485	0.601	0.275				1.15	0.89	1.07	0.425	0.735	0.395	
EKVX	1.12	0.989	0.912	0.243	0.24	0.201	0.628	0.449	0.376	0.349	0.837	0.638	0.57	1.05	0.954	0.963	0.952	0.983	0.24	0.627
COR-L 105	0.853	0.906	0.985	0.534	0.561	0.441	0.475	0.31		0.356				1.11	0.867	1.15	0.691	0.926	0.458	
NCI-H322M	0.886	0.912	0.984	0.813	0.807	0.795	0.261	0.259	0.319	0.302	0.65	0.511	0.595	1.14	0.918	1.3	1.27	1.05	0.67	0.533
NCI-H1793	1.18	1.01	1.21	0.453	0.418	0.293	0.411	0.356	0.379	0.406	0.926	0.306	0.146	1.06	0.944	1.15	0.596	0.896	0.329	0.385
PC-14	1.03	0.918	0.756	0.632	0.696	0.591	0.302	0.256	0.276	0.185	0.365	0.256	0.303	1.07	0.928	1.05		0.96	0.429	0.444
NCI-H358	0.763	0.748	0.255	0.442	0.468	0.146	0.202	0.186	0.379	0.151	0.539		0.368	1.04	1.05	1.01	0.688	0.85	0.392	0.79
LXF-289	0.977	1.04	0.894	0.553	0.541	0.476	0.292	0.205	0.187	0.196	1.12	1.11	1.05	1.06	0.97	1.03	0.958	0.986	0.513	1.17
HCC-366	0.66	0.732	0.463	0.598	0.539	0.559	0.626	0.551	0.639	0.518	0.306	0.283	0.0837	1	1.02	1	0.999	0.628	0.507	0.181
HARA	1.13	0.94	0.927	0.498	0.41	0.307	0.296	0.197	0.248	0.229	0.317	0.554	0.315	1.17	0.79	1.07	0.767	0.859	0.456	0.217
NCI-H2087	0.756	0.956	0.275	0.467	0.389	0.14	1.03	0.744	0.684	0.154	1.39	1.08	0.264	1.12		0.927	0.4	0.853	0.403	1.02
NCI-H520	1.01	0.919	0.307	0.673	0.574	0.253	0.231	0.225	0.216	0.174				0.93	0.823		0.75	0.905	0.316	
NCI-H441	0.563	0.355	0.302	0.976	0.745	0.412			0.503	0.308	1.03	0.946	0.855	1.05	0.783	0.908	0.584	0.417		0.841
NCI-H1651	1.14	0.91	0.396	0.389	0.318	0.148	0.456	0.35	0.612	0.13	0.537	0.362	0.322	1.07	0.958	0.985		0.885	0.307	0.399

Cell Line	relative viability ([1]; first compound 0.08 µM)	relative viability ([1]; first compound 2.53 µM)	relative viability ([1]; first compound 8 µM)	relative viability ([2]; first compound 0.08 µM)	relative viability ([2]; first compound 2.53 µM)	relative viability ([2]; first compound 8 µM)	relative viability ([3]; first compound 0.08 µM)	relative viability ([3]; first compound 0.253 µM)	relative viability ([3]; first compound 2.53 µM)	relative viability ([3]; first compound 8 µM)	relative viability ([4]; first compound 0.08 µM)	relative viability ([4]; first compound 0.253 µM)	relative viability ([4]; first compound 8 µM)	relative viability ([5]; 0.08 µM)	relative viability ([5]; 0.253 µM)	relative viability ([5]; 2.53 µM)	relative viability ([5]; 8 µM)	relative viability ([1]; first compound 0.253 µM)	relative viability ([2]; first compound 0.253 µM)	relative viability ([4]; first compound 2.53 µM)
NCI-H1755	1.03	0.971	0.743	0.569	0.624	0.534	0.419	0.436	0.409	0.35	0.474	0.383	0.312	1.04		0.973	0.936	1.02		0.504
PC-3 [JPC-3]	0.951	1.01	0.949	0.512	0.492	0.453	1.03	0.936			0.929	0.711	0.948	1.15	0.973	1.09		0.981	0.458	1.07
UMC-11	0.991	0.945	0.687	0.316	0.24	0.155	0.509	0.396	0.357	0.205				1.03	0.907	0.917	0.648	0.989	0.301	
ABC-1	0.837	0.918	0.956	0.218	0.247	0.233	0.625	0.493	0.619	0.351	1.09	0.714	0.68	1.07	0.808		0.584	0.893	0.234	0.876
SW 1573	0.805	0.79	0.378	0.446	0.388	0.0803	0.752	0.38	0.505	0.213				1.03	0.98	0.877	0.456	0.786	0.403	
SK-LU-1	1.03	0.932	0.345	0.641	0.487	0.195	0.197	0.184	0.196	0.185				1.15	0.876	0.92	0.655		0.484	
COR-L23	1.05	0.866	0.531	0.44	0.455	0.287	0.55	0.495	0.514	0.235				1.04	0.926	0.957	0.781	0.814	0.419	
NCI-H1563	1.08	1.21	1.16	0.709	0.749	0.532	0.496	0.469	0.478	0.454				1.07	0.958	1.02	0.779	1.41	0.643	
SK-MES-1	1.1	1	1.03	0.689	0.596	0.424	0.434	0.276	0.41	0.273				1.04	0.936	0.997	0.752	1.08	0.62	
HCC-44	0.68		0.658	0.269	0.311	0.207					0.99	0.938		0.989	0.886	0.941	0.901	0.629	0.153	0.909
NCI-H1703	0.642	0.142	0.179								0.125	0.133	0.106	0.859	0.46	0.271	0.249	0.336		0.134
NCI-H2170				0.403	0.43	0.361	0.771	0.485	0.6	0.518		0.816	0.819	1	0.875	0.943	0.782		0.437	0.824
NCI-H2009	1.15	1.05	1.11	0.47	0.433	0.157	0.346	0.23	0.325	0.16				0.951	0.786	0.924	0.731	1.11	0.365	
ChaGo-K-1				0.552	0.469	0.299	0.649	0.505	0.577	0.455	0.899	0.796	0.809		0.915	1	0.867		0.405	0.845
SW 900				0.871	0.461	0.22	0.544	0.481	0.545	0.343	0.675	0.571	0.377	0.996	0.781	1.13	0.865		0.602	0.571
NCI-H2228	0.682	0.669	0.596	0.362	0.259	0.133	0.543	0.434	0.465	0.271				1.17	0.736	0.941	0.714	0.551	0.285	
NCI-H1650				0.557	0.564	0.164	0.366	0.33	0.296	0.172				1.17	0.909	1.31	0.534		0.456	
NCI-H661	0.816	0.55	0.417	0.279	0.289	0.215	0.978	0.82	0.815	0.215					1.02	0.97	0.713	0.57	0.143	
